Measurements published in paper PMC8698456, “Agrobacterium fabrum atu0526-Encoding Protein Is the Only Chemoreceptor That Regulates Chemoattraction toward the Broad Antibacterial Agent Formic Acid” (Biology, 2021).

Experiments:
[1] = target: T1, Atu0526 (Agrobacterium fabrum, UniProt Q7D199); assay: isothermal titration calorimetry; thermo shift assay (Tm […] to […] °C); assay type: binding
T1 construct: gene mclA; periplasmic domain (LBD, from 36th residue to 197th residue), His-tagged, pET30a
T1 sequence (Q7D199 entry or part of it): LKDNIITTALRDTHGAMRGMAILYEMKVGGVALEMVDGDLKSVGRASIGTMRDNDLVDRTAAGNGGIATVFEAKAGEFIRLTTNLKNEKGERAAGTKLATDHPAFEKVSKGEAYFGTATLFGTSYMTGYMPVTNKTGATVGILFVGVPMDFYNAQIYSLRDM

[2] = target: T2, Atu0526 (Agrobacterium fabrum, UniProt Q7D199, R115A); assay: isothermal titration calorimetry (no significant Tm shift in thermo shift assay); assay type: binding
T2 construct: gene mclA; periplasmic domain (Atu0526 LBD R115A; LBD from 36th residue to 197th residue)
T2 sequence (Q7D199 entry or part of it R115A): as the sequence (Q7D199 entry or part of it) above

O=CO [formic acid] gave a Kd [1] of 172 ± 53.6 µM and a Kd [2] of 22.9 ± 5.36 µM.
